Source: patent US12280051B2, “Pharmaceutical composition for topical wound treatment” (CONSEJO NACIONAL DE INVESTIGACIONES CIENTIFICAS Y TECNICAS, priority 2021, dated 2025)

What was measured:
[1] = system: chicken chorioallantoic membrane; assay: Chicken Chorioallantoic Membrane Assay (CAM), angiogenesis; assay type: in vivo; conditions: 300 μl onto the chorioallantoic membrane; 24 and 48 hours; ethosuximide solutions 0.5 and 3.0 mg/mL; FIG. 18
Excerpt: Angiogenesis is a complex biological process involving the generation of new blood vessels from the pre-existing vasculature. The process involves the cooperation of several different cell types, and in particular involves proliferation, survival, and tissue invasion by activated endothelial cells. Most investigations of angiogenesis include at least one in vivo study. The Chicken Chorioallantoic Membrane Assay (CAM) is suitable for a variety of applications. In this assay, the angiogenic properties of different concentrations of ethosuximide and lactic acid and the mixtures were tested.
Eggs commercial lines with a weight between 30-90 g were used. By using an ovoscope the viability of the chorioallantoic membrane was determined to select only fertilized and viable eggs. […]
Then, 300 μl of the following solutions were slowly placed onto the chorioallantoic membrane: Ethosuximide 3.0 mg/mL; Ethosuximide 0.5 mg/mL; M0; M13; M15; LAPS; Negative control (PBS). Each solution was evaluated by triplicade. […]
Angiogenesis tests: Digital images analysis was made by using the software Image J plus. The length of vascularization (cm) per CAM area (cm^2) was evaluated before solution addition (basal) and after 24 and 48 hours. Then, the percentage of increase of vascularization was calculated.

[2] = system: VEGF; assay: VEGF expression in macrophages J774 (real-time PCR); assay type: cell-based, Murine; conditions: Macrophages J774 + LPS 25 ng/mL; Ethosuximide 0.5 mg/mL; 24 hours; FIG. 19
Experimental: (§1) Cell lines were grown and maintained following the protocols of the American Type Culture Collection (ATCC, Rockville, MD, USA), using Minimum Essential Medium (MEM), Fetal Bovine Serum (FBS), L-glutamine.
(§2) To evaluate the expression of the VEGF genes, the following cell lines were used: • a. Murine macrophage cell line J774 (ATCC), stimulated with 25 ng/mL of lipopolysaccharides (LPS) from E. coli (L-8274, Sigma). • b. Adult human skin keratinocytes cell line HaCaT(ATCC).
(§3) Cells were plated for 24 hours with Ethosuximide at different concentrations to evaluate their effect on gene expression.
(§4) Monolayers of the J774 Macrophage cell lines and HaCaT Keratinocytes were used, until confluent cells were obtained, which were stimulated with Ethosuximide at 0.5 and 3.0 mg/mL as indicated in example 1, in 12-well plates, at a final volume of 300 μL/well. For the J774 macrophage line, all treatments were supplemented with LPS (25 ng/mL), using MEM 1× with LPS (25 ng/mL) as control (Control+LPS). HaCaT keratinocytes were treated with the concentrations of ethosuximide in MEM with 10% FBS, using 1× MEM as a control. […]
(§5) Levels of VEGF and GAPDH mRNA were measured in triplicate for each sample using the StepOnePlus Real-Time PCR Systems (Applied Biosystems) and the Power Up SYBR Green Master Mix (ROCHE) kit. […] Group means were determined and normalized to the MEM group for each experiment.

[3] = system: VEGF; assay: VEGF expression in keratinocytes HaCaT (real-time PCR); assay type: cell-based, human; conditions: Ethosuximide 3.0 mg/mL, 24 hours, FIG. 19
Experimental: as §1, §2, §3, §4, §5

[4] = Chelating capacity: remaining Calcium (unchelated); assay type: physicochemical; conditions: pH 7.0
Experimental: The following solutions were prepared in Mixing solvent (MS) at pH 7.0. All solutions were supplemented with ZnCl2 (1 ppm), CaCl2 (100 ppm) and MgCl2 (25 ppm). The concentrations of Zn, Ca and Mg used here, were close to those typically found in exudates from chronic wounds. The pH chosen for the reaction (7.0) would result from the combination of compositions of present invention (pH 5.5) and the exudate from a chronic wound (pH 8.5). Prepared solutions were: EDTA (0.25, 0.50 and 0.75 mg/mL) as indicated in example 1; M0, M13, […] were elaborated according to examples 18 to 21. and LAPS deproteinized: Over a LAPS 24 h sample obtained according to example 1, a deproteinization process was performed using reagents and indications of the commercial kit employed. Measurement of remaining Calcium (unchelated) in the prepared solutions: A commercial Calcium measurement kit (Wiener Lab) was used. This is a colorimetric method based on the reaction of calcium with o-cresolphthalein complexone (o-CPC) at alkaline pH, giving a photocolorimetrically measurable magenta complex at 570 nm.

[5] = Chelating capacity: remaining Zinc (unchelated); assay type: physicochemical; conditions: pH 7.0; EDTA at all concentrations tested; combination of Zinc, Calcium and Magnesium
Experimental: The following solutions were prepared in Mixing solvent (MS) at pH 7.0. All solutions were supplemented with ZnCl2 (1 ppm), CaCl2 (100 ppm) and MgCl2 (25 ppm). The concentrations of Zn, Ca and Mg used here, were close to those typically found in exudates from chronic wounds. The pH chosen for the reaction (7.0) would result from the combination of compositions of present invention (pH 5.5) and the exudate from a chronic wound (pH 8.5). Prepared solutions were: EDTA (0.25, 0.50 and 0.75 mg/mL) as indicated in example 1; M0, M13, […] were elaborated according to examples 18 to 21. and LAPS deproteinized: Over a LAPS 24 h sample obtained according to example 1, a deproteinization process was performed using reagents and indications of the commercial kit employed. Measurement of remaining Zinc (unchelated) in the prepared solutions: A commercial Zinc measurement kit (Randox Lab) was used. This is a colorimetric method based on the reaction of Zinc with Dimethylglyoxime and Salicylaldoxin at alkaline pH, giving a colored complex photocolorimetrically measurable at 560 nm. For the determination of Zinc in LAPS, a previous deproteinization step was necessary. Therefore, equal parts of LAPS and deproteinizing reagent (Trichloroacetic Acid 370 mmol/L) were mixed in conical tubes, homogenized and centrifuged for 10 min at 10,000×g. The supernatant was used for the test.

[6] = system: Staphylococcus aureus MTCC 96; conditions: cited from earlier work
[7] = system: Pseudomonas aeruginosa. MTCC741; conditions: cited from earlier work
[8] = system: Intercellular adhesion molecule-1 (ICAM-1); conditions: cited from earlier work
[9] = system: highly polymerized DNA; assay: DNAse activity halos in DNAse agar and conservation in time; assay type: biochemical; conditions: DNAse 0.97 μg/mL alone (C2); DNAse agar, 24 hours at 32° C.
Excerpt: DNAse agar is a culture medium that contains highly polymerized DNA and agar as solidifying agents. The DNA is the substratum of the deoxyribonuclease enzyme (DNAse) which hydrolyzes it. This medium allows to detect DNAse activity in different samples and microorganisms. The presence of the enzyme could be visualized adding hydrochloric acid 1N. The hydrolyzed deoxyribonucleic acid presents transparency while the polymerized deoxyribonucleic acid precipitates generating resulting in a opacity on the culture media
Plates preparation: DNAse agar plates were prepared according to manufacturer recommendations (Britania, CABA, Argentina). A volume of 20 mL of the molten media was employed reaching an agar height of 2 mm in the plates. Wells of 5 mm o diameter were made over the agar using a sterile punch. Therefore, the sown volume in each well was π×r^2×h=π×(2.5 mm)^2×2 mm=40 mm=40 μL. […]
Analyzed samples: LAPS, M0, M13, M15, M16 (All gelled with hydroxyethyl cellulose) stored at 25° C. and 4° C. DNAse activity was measured once a week for 6 months. […]
Then, the plates were rested and were observed up to no more than 5 minutes after adding the HCl. DNase activity was measured analyzing the transparent evanescence around the planting zone recording in millimeters the halos diameter.

CCC1(C)CC(=O)NC1=O (stereo not shown) [Ethosuximide, ethosuximide]
percentage of increase of vascularization (angiogenic effect) [1]: showed angiogenic properties although it was better at 0.5 mg/mL than 3.0 mg/mL
VEGF expression level normalized to GAPDH [2]: induced
VEGF expression level normalized to GAPDH [3]: induced

O=C(O)CN(CCN(CC(=O)O)CC(=O)O)CC(=O)O [EDTA, ethylenediaminetetraacetic acid]
Calcium chelation percentage ([4]; EDTA 0.25 mg/mL): not able to chelate all the available calcium
Calcium chelation percentage ([4]; EDTA at 0.50, 0.75 and 1.00 mg/mL, combination of zinc, calcium and magnesium): completely
Zinc chelation percentage [5]: completely chelate

XYLENTRA®: synthetically engineered antimicrobial peptide of U.S. Pat. No. 10,285,938 B2
antibacterial activity [6]: significant antibacterial activity
antibacterial activity [7]: significant antibacterial activity

CC(=O)N[C@@H](CS)C(=O)O [NAC, N-acetyl cysteine]
ICAM-1 expression [8]: concentration dependent inhibition

B1: DNAse: rh-Dornase alfa (recombinant human DNase, Roche) diluted in mixing solvent; C2 0.97 μg/mL, C4 3.90 μg/mL (protein, UniProt P24855 23-282, looked up)
Deoxyribonuclease-1: LKIAAFNIQTFGETKMSNATLVSYIVQILSRYDIALVQEVRDSHLTAVGKLLDNLNQDAPDTYHYVVSEPLGRNSYKERYLFVYRPDQVSAVDSYYYDDGCEPCGNDTFNREPAIVRFFSRFTEVREFAIVPLHAAPGDAVAEIDALYDVYLDVQEKWGLEDVMLMGDFNAGCSYVRPSQWSSIRLWTSPTFQWLIPDSADTTATPTHCAYDRIVVAGMLLRGAVVPDSALPFNFQAAYGLSDQLAQAISDHYPVEVMLK
halos of DNAse activity [9]: 8-10 mm
